Source: ChEMBL document CHEMBL1152564, “Antagonists of the human A(2A) receptor. Part 6: Further optimization of pyrimidine-4-carboxamides” (Bioorg Med Chem, 2009)

Key:
Type in all cases: ADME, organism-based
[1] = Terminal half life in rat; conditions: in vivo, read-out: beta t1/2 (converted)
[2] = Tmax in rat plasma
[3] = Volume of distribution in rat; conditions: in vivo
[4] = Oral bioavailability in rat; conditions: in vivo
[5] = Clearance in rat; conditions: in vivo

Molecule `Cc1cccc(CNC(=O)c2cc(-c3ccc(C)o3)nc(N)n2)n1` has a half-life [1] of 3 h, a Tmax [2] of 0.25 h and a Vd [3] of 0.7 L/kg. It also gave a bioavailability [4] of 3% and a clearance [5] of 32.5 mL/min/kg.
